Measurements as given in patent US20050090659A1, “Phospholepid derivatives of nucleosides as antitumaorl medicaments” (priority 2001, published 2005).
Read-outs that look alike come from different tables or passages of the source. Marks after values point to notes of the source that are not given here.

Key:
[1] = test system: MethA fibrosarcoma; conditions: for percent inhibition relative to the control values of group 1, Day 21 / percent inhibition relative to the control values of group 1, Day 28: + means increase; for Effect on tumor growth (antitumoral / antiproliferative), in words: MethA fibrosarcoma model, 3-100 mg/kg once weekly i.p.; for Tumor volume Day 21 / Tumor volume Day 28: median of 10 animals, once weekly i.p.
From the text: The substances, 5-fluoro-2′-deoxyuridine-5′-phosphoric acid-(3-dodecyl-thio-2-decyloxy)propylester (substance A) and 3′-azido-3′-deoxythymidine-5′-phosphoric acid-(3-dodecylthio-2-decyloxy)propylester (substance B), have been tested in the murine MethA fibrosarcoma model, amongst other tests, under in-vivo conditions for their antitumoral or antiproliferative potency and efficacy.
MethA fibrosarcoma cells were propagated intraperitoneal (i.p.) in the form of ascites tumor in female CB6F1 mice (Charles River Laboratories, Sulzfeld, Germany). For the entire duration of the tests, the animals were kept in macrolon cages under laminar flow conditions at 23±1° C. room temperature, 55±15% relative humidity and a light-dark cycle of 12 h each. […] Prior to enrolment in the corresponding experiment, the animals were accustomed to the conditions for at least 14 days. The animals were routinely checked for infection by murine viruses.
To test the active substance, female CB6F1 mice 6-8 weeks of age were inoculated with 1×10^5 MethA fibrosarcoma cells per mouse by the subcutaneous (s.c.) route. The tumor growth in control group mice and in animals of the verum-treated groups was determined regularly in weekly intervals by measuring the two perpendicular tumor diameters as described in Hermann D. B. J., Pahlke W., Opitz H.-G. and Bicker U., Cancer Treatment Reviews, 17, 247-252, 1990. The test substances were tested in a dose-dependent fashion with once weekly i.p. administration in phosphate-buffered saline (PBS). Animals in the control group were treated with placebo (PBS).
Tumor volumes on days 21 and 28 after tumor cell inoculation are expressed as medians of 10 animals per experimental group.

[2] = test system: K562 cells; test: Proliferation experiments with combinations, WST-1 colorimetry; assay type: cell-based; conditions: for reduction of the IC50 value of the combination partner in combination with substance A: substance A at a concentration just short of an antiproliferative effect
Protocol: The effect of the combination containing substance A and cisplatin, doxorubicin, vincristine, and camptothecin, was tested in proliferation experiments. For this purpose, substance A was dissolved in medium at a stock concentration of 1 mg/ml. The other substances were dissolved in water or DMSO (dimethylsulfoxide) at the same stock concentration of 1 mg/ml. The series' of experiments were performed in 96-well plates. […] Cells in the absence of substance and pure medium served as the controls. The in-vitro activity of the test substances was determined by colorimetry on the basis of cleavage of the tetrazolium salt, WST-1 (Roche Molecular Biochemicals, Mannheim, Del.). For this purpose, the cultures were incubated with 10 μl WST for 4 hours. Then the plates were shaken gently. The optical density was measured with an ELISA reader (Spectra MAX 340PC, Molecular Devices, Ismaning, Del.) at wavelengths from 440 to 650 nm. The IC50 value was determined for each substance. In the case of the combination, one of the substances was used at a concentration just short of showing an antiproliferative effect and the IC50 value of the combination was then determined after the addition of the second substance.

[3] = for Blood levels: HB / Blood levels: HCT / Blood levels: MCH / Blood levels: MCHC / Blood levels: MCV / Blood levels: PLT / Blood levels: RBC / Blood levels: WBC / Organ weight: Brain / Organ weight: Colon / Organ weight: Heart / Organ weight: Intestines / Organ weight: Kidney / Organ weight: Liver / Organ weight: Lungs / Organ weight: Ovaries / Organ weight: Spleen / Organ weight: Stomach / Bone marrow cell count: mean ± SEM; for Bone marrow cell count: 10 animals; for Body weight: median
Protocol: Substance A was tested in female NMRI mice for its tolerability. The animals were kept under the same conditions as described in Example 1.
Female NMRI mice, 6-8 weeks of age (Charles River Laboratories, Sulzfeld, Germany), were treated with 1 or 1.5 g/kg of substance A administered by an esophageal probe. Subsequently, the following toxicity parameters were determined: • Blood counts, including white blood cell concentration (WBC), red blood cells concentration (RBC), hemoglobin (HB), hematocrit (HCT), platelet concentration (PLT), mean corpuscular volume (MCV), mean corpuscular hemoglobin (MCH) and mean corpuscular hemoglobin concentration (MCHC), • Bone marrow cell count, i.e. number of bone marrow cells per femur (M/femur), • Body weight • Organ weights, including weight of colon, heart, brain, intestines, lungs, liver, stomach, spleen, kidneys, ovaries.

[4] = 3 mg/kg/application, day 21 after tumor cell inoculation
[5] = partner at a concentration just short of an antiproliferative effect
[6] = very high dosage (1 or 1.5 g/kg)

CCCCCCCCCCCCSCC(COP(=O)(O)OC[C@H]1O[C@@H](n2cc(F)c(=O)[nH]c2=O)C[C@@H]1O)OCCCCCCCCCC (some centres unmarked) [Substance A, 5-fluoro-2′-deoxyuridine-5′-phosphoric acid-(3-dodecyl-thio-2-decyloxy)propylester]
percent inhibition relative to the control values of group 1, Day 21 ([1]; 3 mg/kg/application, day 21): 59.1%
percent inhibition relative to the control values of group 1, Day 28 ([1]; 3 mg/kg/application): 57.6%
percent inhibition relative to the control values of group 1, Day 21 ([1]; 30 mg/kg/application, day 21): 89.7%
percent inhibition relative to the control values of group 1, Day 28 ([1]; 30 mg/kg/application): 87.2%
percent inhibition relative to the control values of group 1, Day 21 ([1]; 100 mg/kg/application, day 21): 91.1%
percent inhibition relative to the control values of group 1, Day 28 ([1]; 100 mg/kg/application): 92.2%
Effect on tumor growth (antitumoral / antiproliferative), in words [1]: inhibits tumor growth highly significantly and in a dose- and time-dependent fashion
Tumor volume Day 21 [1, 4]: 1.649 mm^3
Tumor volume Day 28 ([1]; 3 mg/kg/application): 4.163 mm^3
Tumor volume Day 21 ([1]; 30 mg/kg/application, day 21): 416 mm^3
Tumor volume Day 28 ([1]; 30 mg/kg/application): 1.254 mm^3
Tumor volume Day 21 ([1]; 100 mg/kg/application, day 21): 357 mm^3
Tumor volume Day 28 ([1]; 100 mg/kg/application): 762 mm^3
reduction of the IC50 value of substance A in combination with camptothecin [2, 5]: approx. 40%
reduction of the IC50 value of substance A in combination with cisplatin [2, 5]: 25%
reduction of the IC50 value of substance A in combination with doxorubicin [2, 5]: approx. 30%
reduction of the IC50 value of substance A in combination with vincristine [2, 5]: approx. 60%
Blood levels: HB ([3]; 1 g/kg): 17850 ± 390 µg/mL
Blood levels: HCT ([3]; 1 g/kg): 47.93 ± 1.16%
Blood levels: MCH ([3]; 1 g/kg): 19.28 ± 0.22 pg
Blood levels: MCHC ([3]; 1 g/kg): 37.29 ± 0.44 g/dL
Blood levels: MCV ([3]; 1 g/kg): 51.50 ± 0.58 fL
Blood levels: PLT ([3]; 1 g/kg): 1153 ± 41 k/μl
Blood levels: RBC ([3]; 1 g/kg): 9.31 ± 0.23 M/μl
Blood levels: WBC ([3]; 1 g/kg): 14.34 ± 2.18 k/μl
Organ weight: Brain ([3]; 1 g/kg): 399 ± 8 g
Organ weight: Colon ([3]; 1 g/kg): 373 ± 15 g
Organ weight: Heart ([3]; 1 g/kg): 133 ± 4 g
Organ weight: Intestines ([3]; 1 g/kg): 1.622 ± 61 g
Organ weight: Kidney ([3]; 1 g/kg): 361 ± 17 g
Organ weight: Liver ([3]; 1 g/kg): 1.602 ± 42 g
Organ weight: Lungs ([3]; 1 g/kg): 226 ± 9 g
Organ weight: Ovaries ([3]; 1 g/kg): 183 ± 17 g
Organ weight: Spleen ([3]; 1 g/kg): 125 ± 9 g
Organ weight: Stomach ([3]; 1 g/kg): 232 ± 7 g
Bone marrow cell count ([3]; 1 g/kg): 28.48 ± 0.86 M/Femur
Body weight ([3]; 1 g/kg): 28.7^c g
Tolerability parameters compared to the placebo-treated control group, in words ([3]; 1 or 1.5 g/kg of body weight): no significant reduction in the tolerability parameters
Blood levels: HB ([3]; 1.5 g/kg): 15790 ± 920 µg/mL
Blood levels: HCT ([3]; 1.5 g/kg): 43.42 ± 2.77%
Blood levels: MCH ([3]; 1.5 g/kg): 19.09 ± 0.37 pg
Blood levels: MCHC ([3]; 1.5 g/kg): 36.53 ± 0.38 g/dL
Blood levels: MCV ([3]; 1.5 g/kg): 52.09 ± 0.81 fL
Blood levels: PLT ([3]; 1.5 g/kg): 1431 ± 172 k/μl
Blood levels: RBC ([3]; 1.5 g/kg): 8.34 ± 0.56 M/μl
Blood levels: WBC ([3]; 1.5 g/kg): 16.97 ± 6.05 k/μl
Organ weight: Brain ([3]; 1.5 g/kg): 387 ± 18 g
Organ weight: Colon ([3]; 1.5 g/kg): 392 ± 29 g
Organ weight: Heart ([3]; 1.5 g/kg): 126 ± 9 g
Organ weight: Intestines ([3]; 1.5 g/kg): 1.807 ± 112 g
Organ weight: Kidney ([3]; 1.5 g/kg): 351 ± 26 g
Organ weight: Liver ([3]; 1.5 g/kg): 1.739 ± 81 g
Organ weight: Lungs ([3]; 1.5 g/kg): 206 ± 9 g
Organ weight: Ovaries ([3]; 1.5 g/kg): 203 ± 33 g
Organ weight: Spleen ([3]; 1.5 g/kg): 204 ± 26 g
Organ weight: Stomach ([3]; 1.5 g/kg): 232 ± 16 g
Bone marrow cell count ([3]; 1.5 g/kg): 31.44 ± 1.51 M/Femur
Body weight ([3]; 1.5 g/kg): 27.9^c g
Bone marrow suppression, hematotoxicity or unspecific-toxic organ intolerance, in words [3, 6]: no evidence of bone marrow suppression, hematotoxicity or unspecific-toxic organ intolerance
Unspecific-toxic properties under in-vivo conditions, in words [3, 6]: no unspecific-toxic properties

CCCCCCCCCCCCSCC(COP(=O)(O)OC[C@H]1O[C@@H](n2cc(C)c(=O)[nH]c2=O)C[C@@H]1N=[N+]=[N-])OCCCCCCCCCC (some centres unmarked) [Substance B, 3′-azido-3′-deoxythymidine-5′-phosphoric acid-(3-dodecylthio-2-decyloxy)propylester, reference compound]
percent inhibition relative to the control values of group 1, Day 21 ([1]; 3 mg/kg/application, day 21): 0.8%
percent inhibition relative to the control values of group 1, Day 28 ([1]; 3 mg/kg/application): +4.1%
percent inhibition relative to the control values of group 1, Day 21 ([1]; 30 mg/kg/application, day 21): +1.7%
percent inhibition relative to the control values of group 1, Day 28 ([1]; 30 mg/kg/application): +1.4%
percent inhibition relative to the control values of group 1, Day 21 ([1]; 100 mg/kg/application, day 21): 0.3%
percent inhibition relative to the control values of group 1, Day 28 ([1]; 100 mg/kg/application): +2.8%
Effect on tumor growth (antitumoral / antiproliferative), in words [1]: no antitumoral or antiproliferative properties
Tumor volume Day 21 [1, 4]: 3.998 mm^3
Tumor volume Day 28 ([1]; 3 mg/kg/application): 10.228 mm^3
Tumor volume Day 21 ([1]; 30 mg/kg/application, day 21): 4.102 mm^3
Tumor volume Day 28 ([1]; 30 mg/kg/application): 9.963 mm^3
Tumor volume Day 21 ([1]; 100 mg/kg/application, day 21): 4.021 mm^3
Tumor volume Day 28 ([1]; 100 mg/kg/application): 10.098 mm^3

CC[C@@]1(O)C(=O)OCc2c1cc1n(c2=O)Cc2cc3ccccc3nc2-1 [camptothecin, reference compound]
reduction of the IC50 value of the combination partner in combination with substance A [2]: approx. 90%

N.N.[Cl][Pt][Cl] [cisplatin, reference compound]
reduction of the IC50 value of the combination partner in combination with substance A [2]: 50%

COc1cccc2c1C(=O)c1c(O)c3c(c(O)c1C2=O)C[C@@](O)(C(=O)CO)C[C@@H]3O[C@H]1C[C@H](N)[C@H](O)[C@H](C)O1 [doxorubicin, reference compound]
reduction of the IC50 value of the combination partner in combination with substance A [2]: approx. 50%

CC[C@]1(O)C[C@H]2CN(CCc3c([nH]c4ccccc34)[C@@](C(=O)OC)(c3cc4c(cc3OC)N(C=O)[C@H]3[C@@](O)(C(=O)OC)[C@H](OC(C)=O)[C@]5(CC)C=CCN6CC[C@]43[C@@H]65)C2)C1 [vincristine, reference compound]
reduction of the IC50 value of the combination partner in combination with substance A [2]: approx. 65%
